# From patent publication US8143212B2 (Vicuron Pharmaceuticals Inc., priority 2002, dated 2012)
# Legend:
# [1] = Rat mass balance study; settings: rats
# Experimental: Excreta and more than 40 different tissues were collected through 70 days post-administration, and the tissue distribution and pharmacokinetics of drug-derived radioactivity were determined.
# Following dose administration, urine and feces were collected at 24 hour intervals to 14, 36, and 70 days after the dose (3 rats/final collection time). Water and methanol cage washes were also collected. Carcasses were analyzed at the end of the collection period. All samples were analyzed for total radioactivity content by liquid scintillation counting (LSC).
# [2] = Pharmacokinetics and safety in subjects with renal impairment / ESRD (VER001-3, -11, -13); settings: for half-life: human, plasma, intravenous
# Experimental: The peak concentrations (Cmax) were obtained directly from the observed data. The area under the plasma concentration-time curve (AUC) were calculated using the linear trapezoidal rule.
# Clinical Study VER001-13 examined subjects with mild and moderate renal impairment and Clinical Study VER001-1 examined subjects with severe renal impairment and subjects with end-stage renal disease (ESRD). Matched control subjects were enrolled in all studies. […] Subjects with ESRD were dependent on dialysis through the course of the study (3 times weekly).
# [3] = tested on: S. pneumoniae; test: Murine thigh-infection model (time kill, dosing regimen, PK/PD, neutrophils; Tables 31-33); assay type: in vivo, mice
# Experimental: Each point represents the mean of 4 thighs. Five dose levels, ranging 16-fold were used.
# Five different doses (two-fold increases) were used. […] Each point represents the mean of 4 thighs.
# Each point represents the mean of four thighs.
# Each point represents the mean value from 4 thighs. The static dose, and the doses associated with a 1 and 2 log kill were calculated from the parameters estimated by non-linear regression using the Hill equation.
# [4] = Mean ± SD of S. pneumoniae strains, q 24 h regimen
# [5] = Mean ± SD of S. pneumoniae strains, q 72 h regimen
smiles,measurement,setting,value
CN[C@H]1C(=O)N[C@@H]2Cc3ccc(cc3)Oc3cc4cc(c3O[C@@H]3O[C@H](C(=O)O)[C@@H](O)[C@H](O)[C@H]3NC(=O)CCCCCCCCC(C)C)Oc3ccc(cc3Cl)[C@@H](O)[C@@H]3NC(=O)[C@H](NC(=O)[C@@H]4NC(=O)[C@@H](NC2=O)c2cc(cc(O)c2Cl)Oc2cc1ccc2O)c1ccc(O)c(c1)-c1c(O[C@H]2O[C@H](CO)[C@@H](O)[C@H](O)[C@@H]2O)cc(O)cc1[C@@H](C(=O)NCCCN(C)C)NC3=O [Dalbavancin],plasma t1/2,[1],approximately 1 week
same,half-life,"[2]; 500 mg, t1/2, ESRD Postdialysis (N = 3), VER001-11, single dose 500 mg",14.5 days
same,half-life,"[2]; 500 mg, t1/2, ESRD Predialysis (N = 3), VER001-11, single dose 500 mg",15.7 days
same,half-life,"[2]; 500 mg, t1/2, Normal Renal Function (N = 6), VER001-11, single dose 500 mg",13.9 days
same,half-life,"[2]; 500 mg, t1/2, Severe Renal Impairment (N = 6), VER001-11, single dose 500 mg",18.9 days
same,half-life,"[2]; 1000 mg, t1/2, Mild Renal Impairment (N = 6), VER001-13, single dose 1000 mg",16.2 days
same,half-life,"[2]; 1000 mg, t1/2, Moderate Renal Impairment (N = 6), VER001-13, single dose 1000 mg",18 days
same,half-life,"[2]; 1000 mg, t1/2, Normal Renal Function (N = 9), VER001-13, single dose 1000 mg",17.4 days
same,half-life,"[2]; 1000 mg, t1/2, Severe Renal Impairment (N = 4), VER001-11, single dose 1000 mg",19.5 days
same,half-life,"[2]; 1120 mg, t1/2, Normal Renal Function (N = 3), VER001-2, single dose 1120 mg",6.21 days
same,increase in concentrations vs normal renal function,"[2]; severe renal impairment, through the first week post-dose",≤ 40%
same,1 Log Kill f24AUC/MIC,[3]; [4],21 ± 7.4
same,1 Log Kill mg/kg/24 h,[3]; [4],1.1 ± 0.47 mg/kg/24 h
same,2 Log Kill f24AUC/MIC,[3]; [4],24.3 ± 8.2
same,2 Log Kill mg/kg/24 h,[3]; [4],1.23 ± 0.52 mg/kg/24 h
same,Static Effect f24AUC/MIC,[3]; [4],17.6 ± 6.9
same,Static Effect mg/kg/24 h,[3]; [4],0.91 ± 0.44 mg/kg/24 h
same,1 Log Kill f24AUC/MIC,[3]; [5],9.0 ± 5.8
same,1 Log Kill mg/kg/24 h,[3]; [5],0.93 ± 0.24 mg/kg/24 h
same,2 Log Kill f24AUC/MIC,[3]; [5],16.6 ± 12.3
same,2 Log Kill mg/kg/24 h,[3]; [5],1.13 ± 0.36 mg/kg/24 h
same,Static Effect f24AUC/MIC,[3]; [5],7.2 ± 4.5
same,Static Effect mg/kg/72 h,[3]; [5],0.77 ± 0.18 mg/kg/72 h
same,1 Log Kill f24AUC/MIC,"[3]; SP1199, q 24 h regimen",19.4
same,1 Log Kill mg/kg/24 h,"[3]; SP1199, q 24 h regimen",0.49 mg/kg/24 h
same,2 Log Kill f24AUC/MIC,"[3]; SP1199, q 24 h regimen",22.7
same,2 Log Kill mg/kg/24 h,"[3]; SP1199, q 24 h regimen",0.57 mg/kg/24 h
same,Static Effect f24AUC/MIC,"[3]; SP1199, q 24 h regimen",16.0
same,Static Effect mg/kg/24 h,"[3]; SP1199, q 24 h regimen",0.40 mg/kg/24 h
same,1 Log Kill f24AUC/MIC,"[3]; SP1199, q 72 h regimen",12.1
same,1 Log Kill mg/kg/24 h,"[3]; SP1199, q 72 h regimen",0.85 mg/kg/24 h
same,2 Log Kill f24AUC/MIC,"[3]; SP1199, q 72 h regimen",35.3
same,2 Log Kill mg/kg/24 h,"[3]; SP1199, q 72 h regimen",0.99 mg/kg/24 h
same,Static Effect f24AUC/MIC,"[3]; SP1199, q 72 h regimen",10.3
same,Static Effect mg/kg/72 h,"[3]; SP1199, q 72 h regimen",0.72 mg/kg/72 h
same,1 Log Kill f24AUC/MIC,"[3]; SP1293, q 24 h regimen",21.7
same,1 Log Kill mg/kg/24 h,"[3]; SP1293, q 24 h regimen",0.55 mg/kg/24 h
same,2 Log Kill f24AUC/MIC,"[3]; SP1293, q 24 h regimen",25.9
same,2 Log Kill mg/kg/24 h,"[3]; SP1293, q 24 h regimen",0.65 mg/kg/24 h
same,Static Effect f24AUC/MIC,"[3]; SP1293, q 24 h regimen",17.4
same,Static Effect mg/kg/24 h,"[3]; SP1293, q 24 h regimen",0.44 mg/kg/24 h
same,1 Log Kill f24AUC/MIC,"[3]; SP1293, q 72 h regimen",18
same,1 Log Kill mg/kg/24 h,"[3]; SP1293, q 72 h regimen",1.28 mg/kg/24 h
same,2 Log Kill f24AUC/MIC,"[3]; SP1293, q 72 h regimen",23.8
same,2 Log Kill mg/kg/24 h,"[3]; SP1293, q 72 h regimen",1.68 mg/kg/24 h
same,Static Effect f24AUC/MIC,"[3]; SP1293, q 72 h regimen",14.1
same,Static Effect mg/kg/72 h,"[3]; SP1293, q 72 h regimen",1.01 mg/kg/72 h
same,1 Log Kill f24AUC/MIC,"[3]; SP1325, q 24 h regimen",31.8
same,1 Log Kill mg/kg/24 h,"[3]; SP1325, q 24 h regimen",1.6 mg/kg/24 h
same,2 Log Kill f24AUC/MIC,"[3]; SP1325, q 24 h regimen",34.5
same,2 Log Kill mg/kg/24 h,"[3]; SP1325, q 24 h regimen",1.73 mg/kg/24 h
same,Static Effect f24AUC/MIC,"[3]; SP1325, q 24 h regimen",29.0
same,Static Effect mg/kg/24 h,"[3]; SP1325, q 24 h regimen",1.46 mg/kg/24 h
same,1 Log Kill f24AUC/MIC,"[3]; SP1325, q 72 h regimen",8.8
same,1 Log Kill mg/kg/24 h,"[3]; SP1325, q 72 h regimen",0.99 mg/kg/24 h
same,2 Log Kill f24AUC/MIC,"[3]; SP1325, q 72 h regimen",17.6
same,2 Log Kill mg/kg/24 h,"[3]; SP1325, q 72 h regimen",1.16 mg/kg/24 h
same,Static Effect f24AUC/MIC,"[3]; SP1325, q 72 h regimen",6.0
same,Static Effect mg/kg/72 h,"[3]; SP1325, q 72 h regimen",0.83 mg/kg/72 h
same,1 Log Kill f24AUC/MIC,"[3]; SP1329, q 24 h regimen",23.5
same,1 Log Kill mg/kg/24 h,"[3]; SP1329, q 24 h regimen",1.18 mg/kg/24 h
same,2 Log Kill f24AUC/MIC,"[3]; SP1329, q 24 h regimen",26.7
same,2 Log Kill mg/kg/24 h,"[3]; SP1329, q 24 h regimen",1.45 mg/kg/24 h
